Values of other authors in patent publication US20050272704A1, “Compounds, compositions and methods for stabilizing transthyretin and inhibiting transthyretin misfolding” (priority 2004, published 2005).
Where two headings read alike, the source gives them in different places.

In the case of `O=C(O)c1cc(-c2ccc(F)cc2F)ccc1O` [diflunisal], the “diflunisal concentration in blood” value (4 h after a single 500 mg dose) is given as greater than 300 µM and the “diflunisal concentration in blood” value (20 h after a single 500 mg dose) is given as “exceed 30 μM”.
